Test [1] has as its target T1, Cbl-b (Homo sapiens, UniProt Q13191). Put plainly: Cbl-b inhibition assay (Cbl-b activity assay, FRET, Biological Example 1; 100 mM NaCl, 60 nM Src kinase). It counts as biochemical. The note with it: upper bound stated in text lists; read-out: IC50 values in the Cbl-b inhibition assay of Biological Example 1. In a few lines:
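Inhibition is read as loss of FRET signal. The signal arises when Src-phosphorylated, N-terminal biotinylated Avi-Cbl-b (captured by streptavidin-terbium) binds UbcH5B carrying covalently linked Bodipy-Fluorescein-tagged ubiquitin.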

For test [2], the system named is T-cell. The experiment in a line: IL-2 secretion from T-cells co-stimulated with anti-CD3 and anti-CD28 antibody (Biological Example 2). It counts as cell-based, human. Conditions: Homo sapiens, T-cell, primary human total T-cells, baseline = anti-CD3/anti-CD28 stimulated cells without inhibitor, read-out: IL-2 secretion, Anti-CD3/Anti-CD28 stimulation, fold change over baseline; for fold induction at 0.3 µM: 0.3 μM compound; for fold induction at 1 µM: 1 μM compound; for fold induction at 4 µM: 4 μM compound. In a few lines:
(§1)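 T-cells were stimulated with anti-CD3 antibody alone or with anti-CD28 antibody, in the presence or absence of Cbl-b inhibitor. IL-2 secretion or CD25 surface staining was measured, and values expressed as fold over the uninhibited baseline […].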

The subject of test [3] is T-cell. The experiment in a line: CD25 cell surface staining on T-cells co-stimulated with anti-CD3 and anti-CD28 antibody (Biological Example 2). It counts as cell-based, human. Conditions: Homo sapiens, T-cell, primary human total T-cells, baseline = anti-CD3/anti-CD28 stimulated cells without inhibitor, read-out: CD25 staining, Anti-CD3/Anti-CD28 stimulation, fold change over baseline; for fold induction at 0.3 µM: 0.3 μM compound; for fold induction at 1 µM: 1 μM compound; for fold induction at 4 µM: 4 μM compound. In a few lines:
as §1

Test [4] addresses T1, Cbl-b. Put plainly: Cbl-b activity assay (Cbl-b inhibition assay), TR-FRET of Cbl-b interaction with UbcH5B-Ub. It is filed as biochemical. Conditions: assay buffer with 100 mM NaCl, 60 nM Src kinase; read-out: Cbl-b activity IC50. In a few lines: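 UbcH5B (C85K) conjugated to N-terminally Bodipy-Fluorescein-labeled ubiquitin served as the fluorescent partner. After compound preincubation, Src kinase (60 nM) with 1 mM ATP and 5 mM MgCl2 (final) was added for 1.5 h, followed by a further 1 h incubation. Some values were obtained with 50 mM NaCl and 30 nM Src.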

Test [5] has as its system T-cell. Put plainly: IL-2 secretion from T-cells stimulated with anti-CD3 antibody alone (Biological Example 2). It is filed as cell-based. The note with it: primary human total T-cells, read-out: IL-2 secretion, Anti-CD3 stimulation, fold change over baseline; for fold induction at 1 µM: 1 μM compound; for fold induction at 8 µM: 8 μM compound.
The test system of test [6] is T-cell. Put plainly: CD25 cell surface staining on T-cells stimulated with anti-CD3 antibody alone (Biological Example 2). It counts as cell-based. The note with it: primary human total T-cells, baseline = anti-CD3/anti-CD28 stimulated cells without inhibitor, read-out: CD25 staining, Anti-CD3 stimulation, fold change over baseline; for fold induction at 1 µM: 1 μM compound; for fold induction at 8 µM: 8 μM compound.

T1 sequence (Q13191 36-427): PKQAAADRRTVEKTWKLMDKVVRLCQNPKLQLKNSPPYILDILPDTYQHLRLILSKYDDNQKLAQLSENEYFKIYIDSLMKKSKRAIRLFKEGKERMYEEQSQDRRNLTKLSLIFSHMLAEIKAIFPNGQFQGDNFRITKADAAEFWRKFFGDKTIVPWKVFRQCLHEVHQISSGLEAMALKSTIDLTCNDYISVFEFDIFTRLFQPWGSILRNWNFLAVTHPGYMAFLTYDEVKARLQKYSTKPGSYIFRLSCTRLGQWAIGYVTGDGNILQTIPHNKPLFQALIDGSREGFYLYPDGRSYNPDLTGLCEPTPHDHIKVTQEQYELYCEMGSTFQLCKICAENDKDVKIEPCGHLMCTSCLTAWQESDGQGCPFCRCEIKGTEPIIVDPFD

For the compound `Cn1cnnc1CC1(c2cccc(N3Cc4c(cc(CN5CCC(C)(F)C5)cc4C(F)(F)F)C3=O)c2)COC1` (centres unmarked) [Compound 435, 6-((3-fluoro-3-methylpyrrolidin-1-yl)methyl)-2-(3-(3-((4-methyl-4H-1,2,4-triazol-3-yl)methyl)oxetan-3-yl)phenyl)-4-(trifluoromethyl)isoindolin-1-one], the values for the IC50 at Cbl-b [1] and on Cbl-b [4] were ≤ 100 nM and < 100 nM, respectively. The fold induction at 0.3 µM with T-cell [2] was > 7.5; with T-cell [3] it was 1.31 to 1.5. The fold induction at 1 µM is > 7.5 in the test with T-cell [2], 1.31 to 1.5 in the test with T-cell [3], > 0.201 with T-cell [5] and > 1 in the test on T-cell [6].
In the case of `Cn1cnnc1CC1(c2cccc(N3Cc4c(cc(CO)cc4C(F)(F)F)C3=O)c2)COC1` [Compound 437, 6-(hydroxymethyl)-2-(3-(3-((4-methyl-4H-1,2,4-triazol-3-yl)methyl)oxetan-3-yl)phenyl)-4-(trifluoromethyl)isoindolin-1-one], the IC50 – broadly, the midpoint of a concentration-inhibition curve – was ≤ 100 nM on Cbl-b [1] and < 100 nM at Cbl-b [4]. In addition, the fold induction at 0.3 µM was 2.51 to 5 with T-cell [2] and 1.01 to 1.3 in the test on T-cell [3]. Also, the fold induction at 1 µM in the test on T-cell [2] was in the range of 5 to 7.5; in the test with T-cell [3] it was 1.31 to 1.5; in the test with T-cell [5], 0.101 to 0.15; in the test with T-cell [6] it was 0.601 to 0.8. The fold induction at 4 µM in the test with T-cell [2] is > 7.5; with T-cell [3] it was 1.51 to 1.75. Also, the fold induction at 8 µM lay in the range of 0.051 to 0.1 in the test with T-cell [5] and 0.601 to 0.8 with T-cell [6].
As for `Cn1cnnc1C(F)(F)[C@](C)(F)c1cccc(N2Cc3c(cc(-c4cncc(F)c4)cc3C(F)(F)F)C2=O)c1` [Compound 440, (R)-6-(5-fluoropyridin-3-yl)-2-(3-(1,1,2-trifluoro-1-(4-methyl-4H-1,2,4-triazol-3-yl)propan-2-yl)phenyl)-4-(trifluoromethyl)isoindolin-1-one], the results for the IC50 on Cbl-b [1] and at Cbl-b [4] were ≤ 300 nM and 100 to 300 nM, respectively. Moreover, the fold induction at 0.3 µM with T-cell [2] was 1.01 to 2.5; with T-cell [3], < 1. For the same compound, the fold induction at 1 µM in the test on T-cell [2] fell in the range of 2.51 to 5; in the test on T-cell [3] it was 1.01 to 1.3; with T-cell [5], 0.101 to 0.15; in the test with T-cell [6], 0.601 to 0.8. For the same compound, the results for the fold induction at 4 µM in the test on T-cell [2] and in the test with T-cell [3] were 2.51 to 5 and 1.01 to 1.3, respectively. Also, the fold induction at 8 µM in the test with T-cell [5] was 0.151 to 0.2; in the test with T-cell [6], 0.801 to 1.
On to `CN1CCN(c2cc3c(c(C(F)(F)F)c2)CN(c2cccc([C@@](C)(F)C(F)(F)c4nncn4C)c2)C3=O)CC1` [Compound 441, (R)-6-(4-Methylpiperazin-1-yl)-2-(3-(1,1,2-trifluoro-1-(4-methyl-4H-1,2,4-triazol-3-yl)propan-2-yl)phenyl)-4-(trifluoromethyl)isoindolin-1-one], for which the IC50 was ≤ 300 nM at Cbl-b [1] and 100 to 300 nM on Cbl-b [4]. Also, the fold induction at 0.3 µM in the test on T-cell [2] lay within 1.01 to 2.5; in the test with T-cell [3] it was 1.01 to 1.3. Further, the fold induction at 1 µM in the test with T-cell [2] was in the range of 1.01 to 2.5; with T-cell [3], 1.01 to 1.3; with T-cell [5], 0.051 to 0.1; in the test on T-cell [6] it was 0.601 to 0.8. Besides, the results for the fold induction at 4 µM with T-cell [2] and in the test on T-cell [3] were 2.51 to 5 and 1.01 to 1.3, respectively. In addition, the values for the fold induction at 8 µM with T-cell [5] and in the test with T-cell [6] were 0.151 to 0.2 and > 1, respectively.
In the case of `C[C@@H]1CN(C)CCN1c1cc2c(c(C(F)(F)F)c1)CN(c1cccc([C@@](C)(F)C(F)(F)c3nncn3C)c1)C2=O` [Compound 443, 6-((R)-2,4-Dimethylpiperazin-1-yl)-2-(3-((R)-1,1,2-trifluoro-1-(4-methyl-4H-1,2,4-triazol-3-yl)propan-2-yl)phenyl)-4-(trifluoromethyl)isoindolin-1-one], the values for the IC50 at Cbl-b [1] and at Cbl-b [4] were ≤ 100 nM and < 100 nM, respectively. The results for the fold induction at 0.3 µM in the test with T-cell [2] and in the test with T-cell [3] were 1.01 to 2.5 and 1.01 to 1.3, respectively. In addition, the fold induction at 1 µM was 1.01 to 2.5 with T-cell [2], 1.01 to 1.3 in the test on T-cell [3], < 0.05 in the test with T-cell [5] and 0.801 to 1 with T-cell [6]. The fold induction at 4 µM in the test with T-cell [2] fell in the range of 2.51 to 5; with T-cell [3], 1.31 to 1.5. Besides, the fold induction at 8 µM with T-cell [5] was 0.101 to 0.15; in the test with T-cell [6], > 1.
Turning to `C[C@H]1CN(C)CCN1c1cc2c(c(C(F)(F)F)c1)CN(c1cccc([C@@](C)(F)C(F)(F)c3nncn3C)c1)C2=O` [Compound 444, 6-((S)-2,4-Dimethylpiperazin-1-yl)-2-(3-((R)-1,1,2-trifluoro-1-(4-methyl-4H-1,2,4-triazol-3-yl)propan-2-yl)phenyl)-4-(trifluoromethyl)isoindolin-1-one], the IC50 is ≤ 100 nM at Cbl-b [1] and < 100 nM at Cbl-b [4]. Also, the fold induction at 0.3 µM was 1.01 to 2.5 in the test with T-cell [2] and 1.01 to 1.3 with T-cell [3]. For the same compound, the fold induction at 1 µM was 5 to 7.5 in the test with T-cell [2], 1.01 to 1.3 in the test with T-cell [3], 0.101 to 0.15 with T-cell [5] and > 1 in the test on T-cell [6]. Moreover, the fold induction at 4 µM in the test on T-cell [2] was > 7.5; in the test with T-cell [3], 1.31 to 1.5. For the same compound, the fold induction at 8 µM is > 0.201 with T-cell [5] and > 1 in the test with T-cell [6].
As for `CN1CC2CCC(C1)N2c1cc2c(c(C(F)(F)F)c1)CN(c1cccc([C@@](C)(F)C(F)(F)c3nncn3C)c1)C2=O` [Compound 445, 6-(3-Methyl-3,8-diazabicyclo[3.2.1]octan-8-yl)-2-(3-((R)-1,1,2-trifluoro-1-(4-methyl-4H-1,2,4-triazol-3-yl)propan-2-yl)phenyl)-4-(trifluoromethyl)isoindolin-1-one], the IC50 is ≤ 100 nM at Cbl-b [1] and < 100 nM at Cbl-b [4]. Further, the fold induction at 0.3 µM was in the range of 5 to 7.5 in the test on T-cell [2] and 1.31 to 1.5 with T-cell [3]. Moreover, the fold induction at 1 µM with T-cell [2] was > 7.5; in the test with T-cell [3] it was 1.51 to 1.75; in the test with T-cell [5], > 0.201; with T-cell [6], > 1. Moreover, the fold induction at 4 µM in the test with T-cell [2] was > 7.5; in the test with T-cell [3], 1.51 to 1.75. In addition, the fold induction at 8 µM with T-cell [5] was > 0.201; in the test with T-cell [6], > 1.
`Cn1cnnc1C(F)(F)[C@](C)(F)c1cccc(N2Cc3c(cc(CN4CC(C(F)F)C4)cc3C(F)(F)F)C2=O)c1` [Compound 453, (R)-6-((3-(difluoromethyl)azetidin-1-yl)methyl)-2-(3-(1,1,2-trifluoro-1-(4-methyl-4H-1,2,4-triazol-3-yl)propan-2-yl)phenyl)-4-(trifluoromethyl)isoindolin-1-one]: the IC50 on Cbl-b [1] was ≤ 100 nM; at Cbl-b [4], < 100 nM. Further, the fold induction at 0.3 µM was 5 to 7.5 with T-cell [2] and 1.31 to 1.5 in the test on T-cell [3]. The fold induction at 1 µM in the test on T-cell [2] was > 7.5; in the test with T-cell [3], 1.31 to 1.5; with T-cell [5] it was > 0.201; in the test on T-cell [6], > 1. For the same compound, the results for the fold induction at 4 µM in the test with T-cell [2] and in the test with T-cell [3] were > 7.5 and 1.31 to 1.5, respectively. In addition, the fold induction at 8 µM was 0.151 to 0.2 with T-cell [5] and > 1 in the test on T-cell [6].
In the case of `Cn1cnnc1C(F)(F)[C@](C)(F)c1cccc(N2Cc3c(cc(CN4CC[C@H](C#N)C4)cc3C(F)(F)F)C2=O)c1` [Compound 454, (S)-1-((3-oxo-2-(3-((R)-1,1,2-trifluoro-1-(4-methyl-4H-1,2,4-triazol-3-yl)propan-2-yl)phenyl)-7-(trifluoromethyl)isoindolin-5-yl)methyl)pyrrolidine-3-carbonitrile], the figures for the IC50 at Cbl-b [1] and at Cbl-b [4] were ≤ 100 nM and < 100 nM, respectively. For the same compound, the fold induction at 0.3 µM with T-cell [2] lay in the range of 5 to 7.5; in the test with T-cell [3] it was 1.01 to 1.3. For the same compound, the fold induction at 1 µM in the test on T-cell [2] was > 7.5; with T-cell [3], 1.31 to 1.5; in the test with T-cell [5], > 0.201; in the test on T-cell [6], > 1. In addition, the fold induction at 4 µM in the test with T-cell [2] was > 7.5; in the test with T-cell [3] it was 1.31 to 1.5. The fold induction at 8 µM is > 0.201 in the test with T-cell [5] and > 1 in the test on T-cell [6].

Values taken from patent US20220324835A1 (Nurix Therapeutics, Inc., priority 2018, published 2022).
